{
  "source": "patent US4782159A",
  "about": "“Process for preparing beta-methyl-gamma-oxo-4-(4-oxo-1(4H)-pyridinyl) derivative of benzene butanoic acid” (Smith Kline & French Laboratories Limited, priority 1986, dated 1988)",
  "key": {"[1]": {"tested_on": "left ventricular dp/dt max", "assay": "Cardiac Stimulant Activity--In vivo (Conscious Dogs)", "parameters": "species or system dog", "experimental": "The compound of formula (2) increased left ventricular dp/dt max in conscious dogs after intravenous administration at doses below 0.02 mg/kg. Oral administration caused positive inotropic responses at doses of 0.05 mg/kg and below."}, "PDE (Peak III) [2]": {"molecular_target": "T1, PDE (Peak III) (Felis catus, UniProt A0ABI7YEY2)", "T1 sequence (A0ABI7YEY2 1-1144)": "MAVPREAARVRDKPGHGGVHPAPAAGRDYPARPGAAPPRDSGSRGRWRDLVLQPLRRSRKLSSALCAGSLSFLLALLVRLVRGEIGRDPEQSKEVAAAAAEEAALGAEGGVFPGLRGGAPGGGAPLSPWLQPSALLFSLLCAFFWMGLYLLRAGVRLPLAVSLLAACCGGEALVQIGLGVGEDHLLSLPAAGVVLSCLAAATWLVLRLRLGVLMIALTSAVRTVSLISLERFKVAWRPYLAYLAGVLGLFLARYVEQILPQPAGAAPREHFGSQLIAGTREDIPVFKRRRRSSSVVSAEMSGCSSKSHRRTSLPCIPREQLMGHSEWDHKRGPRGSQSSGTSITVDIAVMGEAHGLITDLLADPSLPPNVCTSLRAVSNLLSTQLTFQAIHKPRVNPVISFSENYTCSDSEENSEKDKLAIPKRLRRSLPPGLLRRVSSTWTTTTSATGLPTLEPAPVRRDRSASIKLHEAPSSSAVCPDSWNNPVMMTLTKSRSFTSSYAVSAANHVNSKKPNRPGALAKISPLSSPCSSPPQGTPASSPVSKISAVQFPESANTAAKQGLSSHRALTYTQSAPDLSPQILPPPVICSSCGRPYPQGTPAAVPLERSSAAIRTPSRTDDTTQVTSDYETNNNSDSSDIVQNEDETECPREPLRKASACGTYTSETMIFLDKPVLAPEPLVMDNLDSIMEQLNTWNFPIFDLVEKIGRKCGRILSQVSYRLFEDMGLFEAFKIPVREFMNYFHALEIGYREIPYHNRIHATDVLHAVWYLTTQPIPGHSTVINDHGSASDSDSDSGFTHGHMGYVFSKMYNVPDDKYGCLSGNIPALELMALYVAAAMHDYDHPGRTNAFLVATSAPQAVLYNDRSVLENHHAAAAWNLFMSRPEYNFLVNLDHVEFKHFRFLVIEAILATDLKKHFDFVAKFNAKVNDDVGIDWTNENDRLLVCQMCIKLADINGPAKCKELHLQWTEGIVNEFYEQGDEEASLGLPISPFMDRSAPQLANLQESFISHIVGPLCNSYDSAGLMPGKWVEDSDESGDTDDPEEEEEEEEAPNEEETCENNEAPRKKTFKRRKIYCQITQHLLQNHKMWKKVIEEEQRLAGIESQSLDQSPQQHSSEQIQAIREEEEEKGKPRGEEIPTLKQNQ", "assay": "Inhibition of Phosphodiesterases, PDE (Peak III)", "procedure": "(§2) The enzyme was assayed by incubation at 37° for 4-30 min in 50 mM Tris, 5 mM MgCl2, pH 7.5 with [3-H] cyclic nucleotide (4×10^5 disintegrations min^-1) and [14-C] nucleotide 5' monophosphate (3×10^3 disintegrations min^-1). The assay was stopped by boiling, and the [3-H] […] The reaction mixture was diluted with 0.5 ml 100 mM HEPES (N-2-Hydroxyethylpiperazine-N'-2-ethanesulfonic acid), 100 mM NaCl, pH 8.5, and applied to the column. […] The recovery of product as judged by [14-C] recovery was approximately 80%. All assays were linear with time of incubation and concentration of enzyme over the range used in these experiments."}, "PDE (Peak I) [3]": {"tested_on": "PDE (Peak I)", "assay": "Substrate kinetics of PDE (Peak I) from cat heart", "type": "biochemical", "settings": "for Relative Vmax: PDE (Peak I)"}, "PDE (Peak II) [4]": {"molecular_target": "T2, PDE (Peak II) (Felis catus, UniProt A0ABI7ZLD2)", "T2 construct": "DEAE-Sepharose CL-6B Peak II of cat heart high-speed supernatant", "T2 sequence (A0ABI7ZLD2 1-921)": "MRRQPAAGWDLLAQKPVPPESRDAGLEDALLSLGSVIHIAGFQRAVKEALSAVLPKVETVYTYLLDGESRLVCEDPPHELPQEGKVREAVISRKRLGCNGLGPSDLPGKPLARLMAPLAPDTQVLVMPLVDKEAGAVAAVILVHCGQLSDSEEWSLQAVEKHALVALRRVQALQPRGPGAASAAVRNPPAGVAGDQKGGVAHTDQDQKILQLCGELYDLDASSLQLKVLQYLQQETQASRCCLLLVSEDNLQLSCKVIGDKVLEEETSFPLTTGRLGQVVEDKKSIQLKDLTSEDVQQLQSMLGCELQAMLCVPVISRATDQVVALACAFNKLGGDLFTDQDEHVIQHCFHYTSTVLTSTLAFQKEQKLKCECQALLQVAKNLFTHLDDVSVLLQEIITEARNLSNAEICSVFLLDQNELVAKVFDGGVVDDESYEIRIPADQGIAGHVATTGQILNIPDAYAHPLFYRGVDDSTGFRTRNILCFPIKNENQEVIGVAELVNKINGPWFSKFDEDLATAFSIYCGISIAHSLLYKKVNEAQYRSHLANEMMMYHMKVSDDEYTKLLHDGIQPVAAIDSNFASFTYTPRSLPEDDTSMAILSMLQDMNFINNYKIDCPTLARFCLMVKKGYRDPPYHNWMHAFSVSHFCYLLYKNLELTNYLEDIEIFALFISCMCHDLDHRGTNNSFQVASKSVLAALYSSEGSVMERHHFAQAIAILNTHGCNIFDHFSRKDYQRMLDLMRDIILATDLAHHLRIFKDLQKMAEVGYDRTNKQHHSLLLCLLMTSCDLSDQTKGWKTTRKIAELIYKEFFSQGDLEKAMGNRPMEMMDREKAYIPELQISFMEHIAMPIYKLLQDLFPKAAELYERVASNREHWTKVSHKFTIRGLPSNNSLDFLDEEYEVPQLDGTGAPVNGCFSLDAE", "assay": "Substrate kinetics of PDE (Peak II) from cat heart", "type": "biochemical", "procedure": "as §2"}, "PDE (Peak III) [5]": {"molecular_target": "T1, PDE (Peak III)", "assay": "Substrate kinetics of PDE (Peak III) from cat heart", "type": "biochemical", "parameters": "DEAE-Sepharose Peak III from high-speed supernatant of cat heart homogenate", "procedure": "as §2"}, "[6]": {"tested_on": "left ventricular dp/dt max (index of left ventricular contractility)", "assay": "Cardiac Stimulant Activity--In vivo (Anaesthetised Cats)", "parameters": "species or system cat", "settings": "intravenous", "description": "In anaesthetised cats pretreated with a ganglion blocker (mecamylamine or pempidine) and propranolol, the compound of formula (2) causes increases in left ventricular dp/dt max (this is an index of left ventricular contractility) when administered intravenously."}, "PDE (Peak I) [7]": {"tested_on": "PDE (Peak I)", "assay": "Inhibition of Phosphodiesterases, PDE (Peak I)", "type": "biochemical, cat", "settings": "at up to 10^-4 M", "description": "(§1) This specificity is an indication that the compound is likely to have a force/rate selectivity in its cardiac stimulant activity with a low potential for inducing arrythmias."}, "PDE (Peak II) [8]": {"molecular_target": "T2, PDE (Peak II)", "assay": "Inhibition of Phosphodiesterases, PDE (Peak II)", "type": "biochemical, cat", "description": "as §1"}, "[9]": {"tested_on": "histamine-induced bronchoconstriction", "assay": "Bronchodilatation--In vivo (histamine-induced bronchoconstriction)", "parameters": "species or system guinea-pig, Dunkin Hartley strain", "settings": "i.v., one minute before histamine challenge", "experimental": "Male guinea-pigs of the Dunkin Hartley strain (530 g±6 g) were anaesthetised with Sagatal (pentobarbital sodium) (90 mg/kg i.p.). Airway resistance was measured using a modification of the classical Konzett-Rossler technique (Versuchsanordnung zu Untersuchungen an der Bronchialmuskulatur. Naunyn-Schmiedebergs Arch. Exp. Path. Pharmak., 195: pp 71-74, (1940)). A dose of histamine which gave approximately 150% increase in airway resistance was selected for i.v. administration. Bolus doses of the compound of formula (2) was administered (i.v.) one minute before the histamine challenge."}, "[10]": {"tested_on": "platelet aggregation induced by the endoperoxide mimetic U44069", "assay": "Platelet Aggregation Inhibition--In vitro", "type": "cell-based", "settings": "U44069 (10 μM), aspirin-treated (100 μM) human platelet rich plasma", "experimental": "Platelet rich plasma (PRP) was prepared from whole human blood anti-coagulated with 1/10 volume acid citrate dextrose. The citrated blood was centrifuged at 700 g for 5 minutes and the PRP removed. The remaining red cells and plasma were centrifuged for a further 15 minutes at 900 g and the platelet poor plasma removed. This was then mixed with the PRP to give a final platelet count of 2-3×10^8 cells/ml.\nPRP was divided into 0.5 ml aliquots which were preincubated for 2 minutes to 37° C. before being placed in the sample chamber of an HG aggregometer connected to a Teckman chart recorder.\nAspirin was added to a concentration of 100 μM.\nAggregation to the endoperoxide mimetic U44069 (9,11-epoxymethano-PGH2) was then examined in the absence and presence of a range of concentrations of the compound of formula (2)."}},
  "note": "Entries after “also recorded” stand apart in the source; their conditions may differ.",
  "data": [
    {"smiles": "Nc1cc(-c2ccncc2)c[nH]c1=O", "note": "[Amrinone, reference compound]", "values": [
      {"measurement": "activity in comparison with the compound of formula (2)", "setting": "[1]", "value": "less active"},
      {"measurement": "duration in comparison with the compound of formula (2)", "setting": "[1]", "value": "shorter duration"},
      {"measurement": "IC50", "setting": "PDE (Peak III) [2]; PDE (Peak III), 1 μM cyclic AMP", "value": 51.8, "unit": "µM"}
    ]},
    {"smiles": "Nc1nc2c(ncn2[C@@H]2O[C@@H]3COP(=O)(O)O[C@H]3[C@H]2O)c(=O)[nH]1", "note": "[cyclic GMP]", "values": [
      {"measurement": "Relative Vmax", "setting": "PDE (Peak I) [3]; 50 μg/ml calmodulin added", "value": 7.2},
      {"measurement": "Relative Vmax", "setting": "PDE (Peak I) [3]; without calmodulin", "value": 1.1},
      {"measurement": "affinity of PDE (Peak I) for substrate", "setting": "PDE (Peak I) [3]; in words", "value": "high affinity"},
      {"measurement": "Relative Vmax", "setting": "PDE (Peak II) [4]; PDE (Peak II)", "value": 0.2},
      {"measurement": "affinity of PDE (Peak II) for substrate", "setting": "PDE (Peak II) [4]; in words", "value": "relatively low affinities"},
      {"measurement": "Relative Vmax", "setting": "PDE (Peak III) [5]", "value": 0.4}
    ]},
    {"smiles": "CC1CC(=O)NN=C1c1ccc(-n2ccc(=O)cc2)cc1", "note": "(centres unmarked) [formula (2)]", "values": [
      {"measurement": "ED50", "setting": "[6]; Felis catus, read-out: ED50 (dose to increase left ventricular dp/dt max by 50%), anaesthetised cats pretreated with ganglion blocker and propranolol", "value": 0.04, "unit": "µmol/kg"},
      {"measurement": "changes in blood pressure or heart rate", "setting": "[6]; anaesthetised cats", "value": "Minimal changes"},
      {"measurement": "changes in blood pressure or heart rate", "setting": "[1]", "value": "without changes"},
      {"measurement": "force-rate selectivity", "setting": "[1]", "value": "particularly beneficial"},
      {"measurement": "inhibition of PDE (Peak I)", "setting": "PDE (Peak I) [7]", "value": "no inhibition"},
      {"measurement": "inhibition of PDE (Peak II)", "setting": "PDE (Peak II) [8]", "value": "either no or weak inhibition"},
      {"measurement": "ED50", "setting": "[9]; Cavia porcellus, iv, read-out: ED50 (dose which reduced the histamine bronchoconstriction by 50%)", "value": 1.8, "unit": "µmol/kg"},
      {"measurement": "minimal effective dose", "setting": "[9]; Cavia porcellus, read-out: threshold dose", "value": 0.01, "unit": "µmol/kg"},
      {"measurement": "effect on histamine-induced bronchoconstriction", "setting": "[9]", "value": "reduced the histamine-induced bronchoconstriction"},
      {"measurement": "IC50", "setting": "[10]", "value": "0.08 ± 0.01", "unit": "µM"},
      {"measurement": "selectivity for PDE (Peak III) / phosphodiesterase type III", "setting": "PDE (Peak III) [2]; versus PDE (Peak I) and PDE (Peak II)", "value": "selective phosphodiesterase type III inhibitor; also recorded: selective PDE (Peak III) inhibitor"}
    ]}
  ]
}
